Source: patent publication US20020002171A1, “Materials and methods for killing nematodes and nematode eggs” (priority 2000, published 2002)

Tested on: Caenorhabditis elegans
Experiment: C. elegans L1 nematicidal dose response in 96-well plates, 5 day visual score (Example 2; same procedure for Example 7, Table 3)
Format: in vivo
Design: key to 5 Day Visual Score V1 / 5 Day Visual Score V2 / 5 Day Visual Score V3 / 5 Day Visual Score V4 / 5 Day Visual Score V6 / 5 Day Visual Score V5 / Initial HTS Run Visual Score / Follow-up HTS Run Visual Score: Dead: only stiff L1s (no movement); Dead (L4): worms are dead, but at a later larval stage; majority of worms are L1 (based on size) worms move when plate is tapped; majority of worms are L2 (based on size); majority of worms are L3 (based on size); majority of worms are L4 (based on size); AD: majority of worms are adult; #AD: 5 adult worms or less; B!: sterile (0-25 progeny); B: low broodsize (25-100 progeny); ˜B: moderate broodsize (100-250 progeny); <: reduced broodsize (250-500 progeny); OK: no effect (˜1000+ progeny)
Conditions: for 5 Day Visual Score V5: dilution V5, day 5; for 5 Day Visual Score V3: dilution V3, day 5; for 5 Day Visual Score V6: dilution V6, day 5; for 5 Day Visual Score V4: dilution V4, day 5
Protocol: Caenorhabditis elegans adults were grown on Nematode Growth Medium (NGM) until they produced eggs, then the adults were removed.
The eggs were allowed to hatch, and the L1 larvae collected. See The Nematode Caenorhabditis elegans (1988) Cold Spring Harbor Laboratory Press. Using a Matrix Programmable Pipette, the L1s were distributed into 96-well tissue culture plates, 20 L1 in 50 μl NGM per well. Antibiotic/Antimyoticwas added to each well, and 1% by weight E. coli strain HB101. The subject anthelmintic compounds were stored at 5 mM in 100% DMSO. 0.7 μl of compounds 1-31 were added to the left-most column of wells to yield a final concentration of 70 μM in 1.4% DMSO, with 1.4% DMSO only as the control. The compounds were then subjected to 5 more 3-fold dilutions from left to right to yield 6 column concentrations of 70 μM, 23.3 μM, 7.8 μM, 2.6 μM, 0.9 μM, and 0.3 μM. Plates were stored in air-tight Rubbermaid plastic boxes at 20° C. The nematodes had cleared all control wells by day 4, and nematode viability was scored by visual examination under a 100× dissecting microsope on day 5. A visual viability scoring system was used as follows:
Column V1 has a compound concentration of 70 μM with sequential 3-fold dilutions reported in columns V2, V3, V4, V5, and V6, respectively, such that the V6 concentration was 0.3 μM.
The nematicidal activity of anthelmintic Compositions 48-168 were determined in accordance with the procedure outlined in Example 2.

[1] = dose response, dilution V1, day 5
[2] = dose response, dilution V2, day 5
[3] = 23.3 μM, C. elegans L1, scored day 5
[4] = 70 μM, C. elegans L1, scored day 5

Structure (SMILES) | Follow-up HTS Run % Run | Follow-up HTS Run mOD | Initial HTS Run % Run | Initial HTS Run mOD | 5 Day Visual Score V1 [1] | 5 Day Visual Score V2 [2] | 5 Day Visual Score V5 (dose response) | Follow-up HTS Run Visual Score | Initial HTS Run Visual Score | 5 Day Visual Score V3 (dose response) | 5 Day Visual Score V6 (dose response) | 5 Day Visual Score V2 [3] | 5 Day Visual Score V1 [4] | 5 Day Visual Score V4 (dose response)
CN(Cc1ccccc1)c1nc(NCc2ccccc2)ns1 [AKC 328] | 101% | 163 mOD | 98% | 108 mOD | Dead | L1 | ˜B (moderate broodsize (100-250 progeny)) | – | – | – | – | – | – | –
CN(CCc1ccccc1)c1nc(NC2CCCCCCCCCCC2)ns1 [AKC 335] | 82% | 132 mOD | 104% | 114 mOD | Dead | Dead | – | Dead | Dead | Dead | OK (no effect (˜1000+ progeny)) | – | – | –
CCC1CCCCN1c1cc(Oc2ccc3oc4ccccc4c3c2)ncn1 (stereo not shown) [AKC 340] | – | – | – | – | – | – | – | – | – | – | – | L1 | L1 | –
O=C(NCCc1ccccc1F)C1C(c2ccc(F)cc2)=NOC1c1ccc(-c2ccccc2)cc1 (stereo not shown) [AKC 2153] | – | – | – | – | – | – | – | – | – | – | – | L1 | L1 | –
Cc1cccc(C)c1N1CCN(c2nsc(N3CCC(O)CC3)n2)CC1 [compound 218] | 78% | 125 mOD | 91% | 100 mOD | Dead | Dead | OK (no effect (˜1000+ progeny)) | Dead | 1AD/B! | – | OK (no effect (˜1000+ progeny)) | – | – | OK (no effect (˜1000+ progeny))
Cc1cccc(C)c1N1CCN(c2nsc(N3CC(C)CC(C)C3)n2)CC1 (stereo not shown) [compound 219] | 74% | 119 mOD | 90% | 99 mOD | Dead | – | OK (no effect (˜1000+ progeny)) | Dead/1AD/B! | 4AD/B | – | OK (no effect (˜1000+ progeny)) | – | – | OK (no effect (˜1000+ progeny))
CCCCN(CCCCO)c1nc(N2CCN(c3c(C)cccc3C)CC2)ns1 [compound 220] | 75% | 121 mOD | 95% | 105 mOD | Dead | – | OK (no effect (˜1000+ progeny)) | Dead | 1AD/B! | ˜B (moderate broodsize (100-250 progeny)) | OK (no effect (˜1000+ progeny)) | – | – | OK (no effect (˜1000+ progeny))
COCCN(CCOC)c1nc(N2CCN(c3c(C)cccc3C)CC2)ns1 [compound 221] | 84% | 136 mOD | 97% | 107 mOD | #AD/˜B | – | OK (no effect (˜1000+ progeny)) | 5AD/B | L4/AD/B | OK (no effect (˜1000+ progeny)) | OK (no effect (˜1000+ progeny)) | – | – | OK (no effect (˜1000+ progeny))
